Details: 2 mg/kg as adriamycin, tail vein, male BALB/c mouse
Protocol: To compare retention in blood of the respective liposomes, 2 mg/kg as the amount of adriamycin was administered from the tale vein to a male BALB/c mouse. After each period of time, the mouse was killed, and the plasma was collected. The amount of adriamycin was quantitatively analyzed by measuring fluorescence after extraction with hydrochloric acid/ethanol in accordance with a method of Konno et al. (Cancer Res. 47 4471 (1987)).
Accordingly, the amount of detected adriamycin is considered to reflect the behavior as the relevant liposome.

COc1cccc2c1C(=O)c1c(O)c3c(c(O)c1C2=O)C[C@@](O)(C(=O)CO)C[C@@H]3O[C@H]1C[C@H](N)[C@H](O)[C@H](C)O1 [free adriamycin, adriamycin]
retention in blood (concentration of adriamycin in blood plasma): disappeared from blood swiftly after the administration
